Data published in ChEMBL document CHEMBL1201862, “PubChem BioAssay data set” (2004).
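Where inhibition never reached the appropriate level, the endpoint shown equals the highest concentration tested. Otherwise, values were interpolated linearly from a five-concentration, 48-hour dose response in 96-well plates. Abbreviation: GI50, concentration required for 50% inhibition of growth.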 Active and inactive are the calls of the source. No stated cut-off is given here; in the data, active = GI50 up to about 1.1 µM and inactive = higher.

Key:
Assay in all cases: NCI-60 cell line screen, 48 h
LOX IMVI = tested on: LOX IMVI
SNB-75 = tested on: SNB-75
A549 = tested on: A549
HT-29 = tested on: HT-29
SR = tested on: SR
SF-295 = tested on: SF-295
MOLT-4 = tested on: MOLT-4
M19-MEL = tested on: M19-MEL
LXFL 529 = tested on: LXFL 529
SF-268 = tested on: SF-268
SW-620 = tested on: SW-620
UO-31 = tested on: UO-31
OVCAR-3 = tested on: OVCAR-3
UACC-62 = tested on: UACC-62
NCI-H23 = tested on: NCI-H23
U-251 = tested on: U-251
SN12C = tested on: SN12C
KM12 = tested on: KM12
K562 = tested on: K562
UACC-257 = tested on: UACC-257
SK-MEL-28 = tested on: SK-MEL-28
M14 = tested on: M14
KM-20L2 = tested on: KM-20L2
OVCAR-4 = tested on: OVCAR-4
DMS-273 = tested on: DMS-273
HCT-15 = tested on: HCT-15
RXF 393 = tested on: RXF 393
TK-10 = tested on: TK-10
SK-MEL-2 = tested on: SK-MEL-2
HL-60 = tested on: HL-60
HOP-92 = tested on: HOP-92
DLD-1 = tested on: DLD-1
HOP-18 = tested on: HOP-18
XF498 = tested on: XF498
OVCAR-5 = tested on: OVCAR-5
SK-MEL-5 = tested on: SK-MEL-5
HCT-116 = tested on: HCT-116
COLO 205 = tested on: COLO 205
NCI-H226 = tested on: NCI-H226
CCRF-CEM = tested on: CCRF-CEM
DMS-114 = tested on: DMS-114
SF-539 = tested on: SF-539
EKVX = tested on: EKVX
OVCAR-8 = tested on: OVCAR-8
A498 = tested on: A498
RPMI-8226 = tested on: RPMI-8226
SK-OV-3 = tested on: SK-OV-3
HOP-62 = tested on: HOP-62
IGROV-1 = tested on: IGROV-1
HCC 2998 = tested on: HCC 2998
Malme-3M = tested on: Malme-3M
RXF 631 = tested on: RXF 631
NCI-H460 = tested on: NCI-H460
SNB-78 = tested on: SNB-78
ACHN = tested on: ACHN
NCI-H522 = tested on: NCI-H522
786-0 = tested on: 786-0
CAKI-1 = tested on: CAKI-1
SNB-19 = tested on: SNB-19

## Nc1nc(Cl)cc(NCCCNc2cc(Cl)nc(N)n2)n1
LOX IMVI
  GI50: > 100000 nM (inactive)
SNB-75
  GI50: > 100000 nM (inactive)
A549
  GI50: > 100000 nM (inactive)
HT-29
  GI50: > 100000 nM (inactive)
SR
  GI50: > 100000 nM (inactive)
SF-295
  GI50: > 100000 nM (inactive)
MOLT-4
  GI50: > 100000 nM (inactive)
M19-MEL
  GI50: > 100000 nM (inactive)
LXFL 529
  GI50: > 100000 nM (inactive)
SF-268
  GI50: > 100000 nM (inactive)
SW-620
  GI50: > 100000 nM (inactive)
UO-31
  GI50: > 100000 nM (inactive)
OVCAR-3
  GI50: > 100000 nM (inactive)
UACC-62
  GI50: > 100000 nM (inactive)
NCI-H23
  GI50: > 100000 nM (inactive)
U-251
  GI50: > 100000 nM (inactive)
SN12C
  GI50: > 100000 nM (inactive)
KM12
  GI50: > 100000 nM (inactive)
K562
  GI50: > 100000 nM (inactive)
UACC-257
  GI50: > 100000 nM (inactive)
SK-MEL-28
  GI50: > 100000 nM (inactive)
M14
  GI50: > 100000 nM (inactive)
KM-20L2
  GI50: > 100000 nM (inactive)
OVCAR-4
  GI50: > 100000 nM (inactive)
DMS-273
  GI50: > 100000 nM (inactive)
HCT-15
  GI50: > 100000 nM
RXF 393
  GI50: > 100000 nM (inactive)
TK-10
  GI50: > 100000 nM (inactive)
SK-MEL-2
  GI50: > 100000 nM (inactive)
HL-60
  GI50: > 100000 nM (inactive)
HOP-92
  GI50: > 100000 nM (inactive)
DLD-1
  GI50: > 100000 nM (inactive)
HOP-18
  GI50: > 100000 nM (inactive)
XF498
  GI50: > 100000 nM (inactive)
OVCAR-5
  GI50: > 100000 nM (inactive)
SK-MEL-5
  GI50: > 100000 nM (inactive)
HCT-116
  GI50: > 100000 nM (inactive)
COLO 205
  GI50: > 100000 nM (inactive)
NCI-H226
  GI50: > 100000 nM (inactive)
CCRF-CEM
  GI50: > 100000 nM (inactive)
DMS-114
  GI50: > 100000 nM (inactive)
SF-539
  GI50: > 100000 nM (inactive)
EKVX
  GI50: > 100000 nM (inactive)
OVCAR-8
  GI50: > 100000 nM (inactive)
A498
  GI50: > 100000 nM (inactive)
RPMI-8226
  GI50: > 100000 nM (inactive)
SK-OV-3
  GI50: > 100000 nM (inactive)
HOP-62
  GI50: > 100000 nM (inactive)
IGROV-1
  GI50: > 100000 nM (inactive)
HCC 2998
  GI50: > 100000 nM (inactive)
Malme-3M
  GI50: > 100000 nM (inactive)
RXF 631
  GI50: > 100000 nM (inactive)
NCI-H460
  GI50: > 100000 nM (inactive)

## CCCCCCCCCCCCNC1(C)CNCCCNCCNCCCNC1
LOX IMVI
  GI50: 1840 nM (inactive)
SNB-75
  GI50: 1730 nM (inactive)
A549
  GI50: 1760 nM (inactive)
SNB-78
  GI50: 1820 nM (inactive)
HT-29
  GI50: 1580 nM (inactive)
SR
  GI50: 1610 nM (inactive)
SF-295
  GI50: 1510 nM (inactive)
MOLT-4
  GI50: 1430 nM (inactive)
M19-MEL
  GI50: 1720 nM (inactive)
LXFL 529
  GI50: 1670 nM (inactive)
SF-268
  GI50: 1340 nM (inactive)
SW-620
  GI50: 1790 nM (inactive)
UO-31
  GI50: 2290 nM (inactive)
OVCAR-3
  GI50: 1820 nM (inactive)
ACHN
  GI50: 1780 nM (inactive)
UACC-62
  GI50: 1820 nM (inactive)
NCI-H23
  GI50: 1710 nM (inactive)
U-251
  GI50: 1080 nM (active)
SN12C
  GI50: 1670 nM (inactive)
KM12
  GI50: 1530 nM (inactive)
K562
  GI50: 1890 nM (inactive)
UACC-257
  GI50: 1760 nM (inactive)
SK-MEL-28
  GI50: 1870 nM (inactive)
M14
  GI50: 1790 nM (inactive)
NCI-H522
  GI50: 1820 nM (inactive)
786-0
  GI50: 1750 nM (inactive)
KM-20L2
  GI50: 1660 nM (inactive)
OVCAR-4
  GI50: 2070 nM (inactive)
DMS-273
  GI50: 475 nM (active)
RXF 393
  GI50: 1560 nM (inactive)
TK-10
  GI50: 1700 nM (inactive)
SK-MEL-2
  GI50: 1900 nM (inactive)
HL-60
  GI50: 726 nM (active)
HOP-92
  GI50: 1850 nM (inactive)
DLD-1
  GI50: 1670 nM (inactive)
HOP-18
  GI50: 1680 nM (inactive)
XF498
  GI50: 1930 nM (inactive)
CAKI-1
  GI50: 1870 nM (inactive)
OVCAR-5
  GI50: 2230 nM (inactive)
SK-MEL-5
  GI50: 1680 nM (inactive)
HCT-116
  GI50: 1320 nM (inactive)
COLO 205
  GI50: 1740 nM (inactive)
NCI-H226
  GI50: 1510 nM (inactive)
CCRF-CEM
  GI50: 1380 nM (inactive)
SF-539
  GI50: 1870 nM (inactive)
EKVX
  GI50: 3560 nM (inactive)
OVCAR-8
  GI50: 1550 nM (inactive)
RPMI-8226
  GI50: 1630 nM (inactive)
SK-OV-3
  GI50: 1820 nM (inactive)
HOP-62
  GI50: 1980 nM (inactive)
IGROV-1
  GI50: 1070 nM (active)
HCC 2998
  GI50: 1790 nM (inactive)
Malme-3M
  GI50: 2010 nM (inactive)
RXF 631
  GI50: 1930 nM (inactive)
NCI-H460
  GI50: 1330 nM (inactive)
SNB-19
  GI50: 1760 nM (inactive)
